{"source": "patent US8034748B2", "about": "“Additives for inhibiting the formation of gas hydrates” (Clariant Produkte (Deutschland) GmbH, priority 2001, dated 2011)"}
{"assay": "Test as antiagglomerant (agglomerate inhibition) in stirred steel autoclave", "details": "5 000 ppm additive based on aqueous phase; water and white spirit 1:2; gas 1, 90 bar; 2° C. for 25 hours", "units": {"Pressure drop Δ p": "bar", "Temperature rise Δ T": "K", "Torque Mmax": "Ncm"}, "procedure": "To investigate the inhibiting action of the compounds according to the invention, a stirred steel autoclave having temperature control, pressure and torque sensor having an internal volume of 450 ml was used. For investigations of kinetic inhibition, the autoclave was filled with distilled water and gas in a volume ratio of 20:80, and, for investigations of agglomerate inhibition, condensate was additionally added. Finally, natural gas was injected at different pressures.\nStarting from a starting temperature of 17.5° C., the autoclave was cooled to 2° C. within 2 h, then stirred at 2° C. for 18 h and heated back up to 17.5° C. within 2 h. An initial pressure decrease corresponding to the thermal compression of the gas is observed. When the formation of gas hydrate nuclei occurs during the supercooling time, the pressure measured falls, and an increase in the torque measured and a slight increase in temperature can be observed. Without inhibitor, further growth and increasing agglomeration of the hydrate nuclei lead rapidly to a further increase in the torque. When the mixture is heated, the gas hydrates decompose, so that the starting state of the experimental series is attained.\nOn the other hand, the torque measured in the autoclave serves as a parameter for the agglomeration of the hydrate crystals. The pressure drop measured (Δp) allows a direct conclusion on the amount of hydrate crystals formed.\nGas 1: 79.3% methane, 10.8% ethane, 4.8% propane, 1.9% butane, 1.4% carbon dioxide, 1.8% nitrogen. Supercooling below the equilibrium temperture of hydrate formation at 50 bar: 12° C.\nIn order to test the effectiveness as agglomerate inhibitors, the test autoclave used above was initially charged with water and white spirit (20% of the volume in a ratio of 1:2) and, based on the aqueous phase, 5 000 ppm of the particular additive were added. At an autoclave pressure of 90 bar using gas 1 and a stirrer speed of 5 000 rpm, the temperature was cooled from initially 17.5° C. within 2 hours to 2° C., then the mixture was stirred at 2° C. for 25 hours and heated again. The pressure drop caused by hydrate formation and the resulting torque at the stirrer, which is a measure of the agglomeration of the gas hydrates, were measured."}
{"smiles": "CCCCC(CC)COC(=O)COCC[N+](C)(CCOCC(=O)OCC(CC)CCCC)C1CCCC1.COS(=O)(=O)[O-]", "note": "(stereo not drawn) [Example 46]", "Pressure drop Δ p": 15.1, "Temperature rise Δ T": 0.3, "Torque Mmax": 0.3}
{"smiles": "CCCCC(CC)COC(=O)COCC[N+](C)(CCOCC(=O)OCC(CC)CCCC)C1CCCCC1.COS(=O)(=O)[O-]", "note": "(stereo not drawn) [Example 48]", "Pressure drop Δ p": 15.3, "Temperature rise Δ T": 0.7, "Torque Mmax": 0.4}
{"smiles": "CCCCC(CC)COC(=O)COCC[N+](C)(CCCC)CCOCC(=O)OCC(CC)CCCC.COS(=O)(=O)[O-]", "note": "(stereo not drawn) [Example 50]", "Pressure drop Δ p": 10.1, "Temperature rise Δ T": 0.1, "Torque Mmax": 0.2}
